Measured values as given in US20260232578A1, “COMPOSITIONS AND METHODS FOR TRANSMUCOSAL ABSORPTION” (Tonix Pharma Limited, priority 2012, published 2026).
pIC50, pKi: −log10 of the molar value. Like-named read-outs stand apart in the source and are kept apart here.

Columns and labels:
[1] = target: T1, adrenergic alpha-2B receptor (Alpha2B) (Homo sapiens, UniProt P18089); experiment: Equilibrium receptor binding, recombinant human receptor
T1 construct: expressed in transfected cells

[2] = target: 5-HT6 (Homo sapiens, UniProt P50406); experiment: as above; design: expressed in transfected cells
Chain of 5-HT6 (P50406 whole entry): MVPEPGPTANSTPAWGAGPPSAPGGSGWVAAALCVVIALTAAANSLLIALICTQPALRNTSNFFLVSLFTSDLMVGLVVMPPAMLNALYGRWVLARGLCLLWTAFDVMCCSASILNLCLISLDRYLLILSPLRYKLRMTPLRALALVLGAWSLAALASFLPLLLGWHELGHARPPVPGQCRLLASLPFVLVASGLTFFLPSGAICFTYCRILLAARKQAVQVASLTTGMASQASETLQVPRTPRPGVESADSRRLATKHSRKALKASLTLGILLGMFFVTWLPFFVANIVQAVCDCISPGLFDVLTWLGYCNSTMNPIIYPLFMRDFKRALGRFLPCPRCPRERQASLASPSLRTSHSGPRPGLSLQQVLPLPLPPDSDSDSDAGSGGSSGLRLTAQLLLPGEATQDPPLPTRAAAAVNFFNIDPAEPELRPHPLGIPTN

[3] = target: T2, adrenergic alpha-2A receptor (Alpha2A) (Homo sapiens, UniProt P08913); experiment: as above
T2 construct: expressed in transfected cells
T2 sequence (P08913 1-465): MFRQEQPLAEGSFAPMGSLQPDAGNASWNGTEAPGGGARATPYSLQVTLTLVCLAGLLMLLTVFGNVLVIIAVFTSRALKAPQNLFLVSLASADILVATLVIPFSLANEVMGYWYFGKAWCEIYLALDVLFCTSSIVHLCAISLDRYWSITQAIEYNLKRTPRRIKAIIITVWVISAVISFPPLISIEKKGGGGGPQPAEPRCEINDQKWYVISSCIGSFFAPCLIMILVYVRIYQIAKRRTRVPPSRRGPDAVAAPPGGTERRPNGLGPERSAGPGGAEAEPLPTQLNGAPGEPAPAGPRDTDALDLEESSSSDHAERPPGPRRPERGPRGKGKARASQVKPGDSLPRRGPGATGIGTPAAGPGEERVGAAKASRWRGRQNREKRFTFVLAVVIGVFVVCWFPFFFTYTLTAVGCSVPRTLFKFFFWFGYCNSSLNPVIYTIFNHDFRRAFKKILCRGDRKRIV

[4] = humans, cited from earlier work
[5] = target: T3, adrenergic α1B receptor (Homo sapiens, UniProt P35368); experiment: G-protein-independent signal transduction, β-arrestin signaling; type: cell-based; settings: for pIC50: α1B, β-arrestin signaling, read-out: IC50, functional antagonist
T3 construct: expressed in transfected cells
T3 sequence (P35368 1-520): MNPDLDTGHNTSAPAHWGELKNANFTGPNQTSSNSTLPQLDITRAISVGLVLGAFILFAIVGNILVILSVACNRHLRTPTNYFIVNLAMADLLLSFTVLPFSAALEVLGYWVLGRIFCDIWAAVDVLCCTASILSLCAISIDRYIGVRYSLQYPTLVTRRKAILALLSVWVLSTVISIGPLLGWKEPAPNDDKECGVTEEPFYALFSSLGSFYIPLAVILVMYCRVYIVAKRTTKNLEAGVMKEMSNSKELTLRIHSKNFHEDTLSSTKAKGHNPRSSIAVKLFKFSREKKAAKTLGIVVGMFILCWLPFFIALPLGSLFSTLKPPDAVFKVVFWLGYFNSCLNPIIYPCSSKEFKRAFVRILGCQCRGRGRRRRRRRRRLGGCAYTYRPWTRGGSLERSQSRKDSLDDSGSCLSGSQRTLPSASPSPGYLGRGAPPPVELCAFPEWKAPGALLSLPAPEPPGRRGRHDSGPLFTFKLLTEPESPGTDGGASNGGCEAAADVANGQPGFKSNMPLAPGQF

[6] = target: T4, 5-HT1A receptor (Homo sapiens, UniProt P08908); experiment: Equilibrium receptor binding, recombinant human receptor
T4 construct: expressed in transfected cells
T4 sequence (P08908 1-422): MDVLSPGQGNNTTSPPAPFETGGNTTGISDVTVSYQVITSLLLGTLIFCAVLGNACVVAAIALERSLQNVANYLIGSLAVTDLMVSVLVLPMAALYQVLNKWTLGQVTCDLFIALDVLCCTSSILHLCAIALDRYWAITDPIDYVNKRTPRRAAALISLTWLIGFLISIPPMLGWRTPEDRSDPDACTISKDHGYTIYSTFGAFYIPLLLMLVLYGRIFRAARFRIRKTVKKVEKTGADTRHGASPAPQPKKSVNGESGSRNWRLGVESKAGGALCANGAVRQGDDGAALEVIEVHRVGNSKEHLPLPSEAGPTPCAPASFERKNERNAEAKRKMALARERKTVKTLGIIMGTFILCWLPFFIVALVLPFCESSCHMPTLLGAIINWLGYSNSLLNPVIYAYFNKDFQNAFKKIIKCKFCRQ

[7] = in vivo; settings: beagle, dog
Method: Each dog was sampled at pre-dose before and after Propofol (when possible) and at 5, 10 and 20 minutes post-dose.

[8] = humans, cited from earlier work; remark: listed apart in the source
[9] = target: α2B (Homo sapiens, UniProt P18089); experiment: Functional antagonism, cAMP production
Chain of α2B (P18089 whole entry): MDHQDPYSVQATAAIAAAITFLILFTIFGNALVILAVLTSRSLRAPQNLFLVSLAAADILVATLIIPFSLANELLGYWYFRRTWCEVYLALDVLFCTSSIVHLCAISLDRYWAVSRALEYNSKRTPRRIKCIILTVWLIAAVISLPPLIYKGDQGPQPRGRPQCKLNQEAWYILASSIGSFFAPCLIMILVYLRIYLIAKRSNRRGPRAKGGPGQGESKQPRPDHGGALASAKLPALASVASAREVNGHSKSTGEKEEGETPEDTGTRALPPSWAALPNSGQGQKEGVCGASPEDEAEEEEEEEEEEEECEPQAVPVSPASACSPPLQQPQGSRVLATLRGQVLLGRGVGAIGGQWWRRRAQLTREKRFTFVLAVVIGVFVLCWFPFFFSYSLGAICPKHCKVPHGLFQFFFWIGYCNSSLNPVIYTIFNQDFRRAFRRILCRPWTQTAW

[10] = Beagle; for plasma level adjusted to 0.14 mg/kg: Hucker IV
Method: Doses were expressed as free base, and so should be adjusted by MW Free Base 275 g/mole/MW HCl salt 312 g/mole. […] In our Beagle studies, the dose was 0.14 mg/kg, which is approximately 1/12.6 the dose of the Hucker studies.

[11] = target: T5, 5-HT2C (Homo sapiens, UniProt P28335); experiment: G-protein-dependent signal transduction, turnover of inositol triphosphate (IP); type: cell-based; settings: read-out: IC50 (nM) (Antagonist)
T5 construct: expressed in transfected cells
T5 sequence (P28335 33-458): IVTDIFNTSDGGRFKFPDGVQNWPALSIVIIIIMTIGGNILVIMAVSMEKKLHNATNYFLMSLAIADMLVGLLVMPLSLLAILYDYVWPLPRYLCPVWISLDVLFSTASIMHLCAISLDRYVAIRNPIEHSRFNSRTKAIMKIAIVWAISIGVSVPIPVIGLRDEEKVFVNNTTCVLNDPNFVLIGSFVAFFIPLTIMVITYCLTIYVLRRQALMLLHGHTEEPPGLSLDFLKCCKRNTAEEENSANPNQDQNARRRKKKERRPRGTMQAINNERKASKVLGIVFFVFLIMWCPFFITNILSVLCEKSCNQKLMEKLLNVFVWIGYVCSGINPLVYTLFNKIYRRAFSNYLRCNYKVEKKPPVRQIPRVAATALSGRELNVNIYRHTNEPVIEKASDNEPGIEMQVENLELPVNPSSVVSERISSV

[12] = target: T6, muscarinic M1 receptor (Homo sapiens, UniProt P11229)
T6 sequence (P11229 1-460): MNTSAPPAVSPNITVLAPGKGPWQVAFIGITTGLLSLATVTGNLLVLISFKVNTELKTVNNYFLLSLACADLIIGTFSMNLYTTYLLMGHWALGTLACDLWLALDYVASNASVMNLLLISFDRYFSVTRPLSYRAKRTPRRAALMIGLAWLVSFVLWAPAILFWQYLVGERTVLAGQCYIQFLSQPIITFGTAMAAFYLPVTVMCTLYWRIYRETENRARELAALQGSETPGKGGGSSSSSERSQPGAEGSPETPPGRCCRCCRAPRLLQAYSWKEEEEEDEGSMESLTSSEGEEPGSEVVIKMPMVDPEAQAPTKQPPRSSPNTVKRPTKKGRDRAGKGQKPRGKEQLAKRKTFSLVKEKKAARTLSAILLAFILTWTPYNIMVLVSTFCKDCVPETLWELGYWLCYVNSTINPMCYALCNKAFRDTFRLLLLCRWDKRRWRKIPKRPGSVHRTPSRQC

[13] = 2.5 mg immediate release tablets (Winchell)
[14] = 5.0 mg immediate release tablets (Winchell)
[15] = 10 mg immediate release tablets (Winchell)

T1 sequence (P18089 whole entry): as the sequence (P18089 whole entry) above

SMILES: CN(C)CCC=C1c2ccccc2C=Cc2ccccc21 [cyclobenzaprine, 3-(5H-dibenzo[a,d]cyclohepten-5-ylidene)-N,N-dimethyl-1-propanamine]
- pKi [1]: 7.68
- pKi [2]: 6.32
- pKi [3]: 6.44
- AUC0-8 h [4, 13]: 0.0111 µg·h/mL
- AUC0-∞h [4, 13]: 0.0442 µg·h/mL
- AUC0-8 h [4, 14]: 0.023 µg·h/mL
- AUC0-∞h [4, 14]: 0.0895 µg·h/mL
- AUC0-8 h [4, 15]: 0.0459 µg·h/mL
- AUC0-∞h [4, 15]: 0.1782 µg·h/mL
- pIC50 [5]: 6.84
- pKi [6]: 5.96
- bioavailability, sublingual vs IV calculated in the same condition [7]: about 200%
- upper limit for the half-life of the first phase (distribution out of plasma) ([8]; IV bolus): 3 to 5 min
- amount in plasma as % of the theoretical initial concentration (Cinit) ([8]; within 3 to 30 minutes after IV bolus): less than 5%
- pIC50 [9]: 5.01
- plasma level adjusted to 0.14 mg/kg ([10]; 0.5 h): 0.0341 µg/mL
- plasma level adjusted to 0.14 mg/kg ([10]; 2 hours): 0.0476 µg/mL
- plasma level adjusted to 0.14 mg/kg ([10]; 6 h): 0.0357 µg/mL
- peak plasma level adjusted to 0.14 mg/kg ([10]; Hucker PO gelatin capsule, at 2 hours): 115.9 ng/mL
- IC50 [11]: 770 nM

SMILES: CNCCC=C1c2ccccc2C=Cc2ccccc21 [norcyclobenzaprine, 3-(5H-dibenzo[a,d]cyclohepten-5-ylidene)-N-methyl-1-propanamine]
- pKi [1]: 6.82
- pKi [2]: 5.85
- pKi [3]: 5.74
- pIC50 [5]: 6.76
- Four parameter Hill slope (or fit slope) ratio; β-arrestin signaling ([5]; α-1B): 0.70
- pKi [6]: 7.12
- Hill plot ratio (Hill slope) ([6]; equilibrium binding): 4.07
- pIC50 [9]: 4.39
- IC50 [11]: 2000 nM
- Hill plot ratio (Hill slope) [12]: 0.70
